For assay [1], the system named is HLA-A11.2. The assay is described as follows: Immunochemical peptide-MHC binding assay, purified HLA-A11.2, radiolabeled probe […]. Set-up: species or system human. The following applies: IC50 of standard divided by IC50 of tested peptide, cysteines synthesized as alanine. An excerpt: (§1) The method utilizes purified class I molecules and radiolabeled synthetic probes based on consensus peptides. Competitor peptides tested for their binding to the class I molecules compete for this binding with the radiolabeled consensus peptides. The HLA-A1, A2.1, A3.2, A11.2, and A24 molecules were isolated from the following cell lines, respectively: the EBV (Eppstein Barr Virus) transformed cell line Steinlin, the EBV transformed cell line JY, the EBV transformed cell line GM3107, the cell line BVR and the EBV transformed cell line KT3. After large scale culture, cells were lysed in NP40 (Fluka Biochemika, Buchs, Switzerland) and the lysate was passed over two pre-columns of inactivated sepharose CL 4B and Prot A Sepharose. Class I molecules were then purified from the cell lysate by affinity chromatography using Prot A Sepharose beads conjugated with B2.23.2 (anti-HLA-B and HLA-C) and anti-human HLA. The lysate was first depleted of B and C molecules by repeated passage over the B2.23.2 column.
(§2) After two days at 23° C. the percent of MHC-bound radioactivity was measured by size exclusion chromatography on a TSK2000 gel filtration as described by Sette et al. (1992).
(§3) Probe peptides were iodinated by using the Chloramine T method described by Buus et al. (1987). The sequences of the probe peptides used for the aforementioned HLA molecules were […] (SEQ ID NO:76) for A1, […] (SEQ ID NO:77) for A2.1, […] (SEQ ID NO:78) for A3.2, […] (SEQ ID NO:79) for A11.2, and […] (SEQ ID NO:80) for A24.
(§4) Each competitor peptide was tested in two to four completely independent experiments. Since cysteine containing peptides are susceptible to (air) oxidation during synthesis and handling, these peptides were synthesized with an alanine instead of a cysteine.

Assay [2] addresses T1, HLA-A3.2 (Homo sapiens, UniProt P04439).
T1 construct: endogenous in cells; host or cells: EBV transformed cell line GM3107 (protein purified from NP40 lysate)
It counts as binding. The following applies: HLA-A3.2; IC50 of standard divided by IC50 of tested peptide; cysteines synthesized as alanine.
Text: as §1, §2, §3, §4

The target in assay [3] is T2, HLA-A1 (Homo sapiens, UniProt P04439, A114D/A174V/A182V/D101N/E190D/Q94H/R68K/S129P/V100A/V91M/W191G).
T2 construct: endogenous in cells; host or cells: EBV transformed cell line Steinlin (protein purified from NP40 lysate)
The assay is described as follows: Immunochemical peptide-MHC binding assay, purified HLA-A1, radiolabeled probe YLEPAIAKY
The following applies: IC50 of standard divided by IC50 of tested peptide, cysteines synthesized as alanine.
Text: as §1, §2, §3, §4

For assay [4], the system named is HLA-A24. Nature of the assay: Immunochemical peptide-MHC binding assay, purified HLA-A24, radiolabeled probe AYIDNYNKF
Set-up: species or system human. The following applies: IC50 of standard divided by IC50 of tested peptide, cysteines synthesized as alanine.
Text: as §1, §2, §3, §4

Assay [5] has as its target T3, HLA-A2.1 (Homo sapiens, UniProt P04439, D140Y/D185E/D98H/E176V/E277Q/G131W/G231S/I119V/I121R/I166T/I218V/L300P/L318F/N151K/N90K/P208A/P217A/Q86G/Q94H/R138H/R169H/T345S).
T3 construct: endogenous in cells; host or cells: 174CEM.T2
It counts as cell-based. The following applies: HPV16 peptides, 200 μg/ml peptide, 16 hours, 174CEM.T2 cells; for FI (Fluorescence Index): background set on 0, binding positive when ≧0.5. As to the method: Of all peptides a dilution of 1 mg/ml in 0.9% NaCl was made.
174CEM.T2 cells were cultured in Iscovel's modified Dulbecco's medium (Biochrom KG Seromed Berlin, Germany: F0465) supplemented with 100 IU/ml penicillin (Biocades Pharma, Leiderdorp, The Netherlands), 100 μg/ml kanamycin (Sigma St. Louis, USA:K-0254), 2 mM glutamine (ICN Biomedicals Inc. Costa Mesa, Calif., USA:15-801-55) and 10% fetal calf serum (FCS, Hyclone Laboratories Inc. Logan, Utah, USA:A-1115-L). Cells were cultured at a density of 2.5×10^5/ml during 3 days at 37° C., 5% CO2 in humified air.
174CEM.T2 cells were washed twice in culture medium without FCS and put in serum-free culture medium to a density of 2×10^6 cells/ml. Of this suspension 40 μl was put into a V bottomed 96 well plate (Greiner GmbH, Frickenhausen, Germany: 651101) together with 10 μl of the individual peptide dilutions (of 1 mg/ml). The end concentration is 200 μg/ml peptide with 8×10^4 174CEM.T2 cells. This solution was gently agitated for 3 minutes after which an incubation time of 16 hours at 37° C., 5% CO2 in humified air took place. Then cells were washed once with 100 μl 0.9% NaCl, 0.5% bovine serum albumin (Sigma St. Louis, USA: A-7409), 0.02% NaN3 (Merck Darmstadt, Germany:822335). After a centrifuge round of 1200 rpm the pellet was resuspended in 50 μl of saturating amounts of HLA-A2.1 specific mouse monoclonal antibody BB7.2 for 30 minutes at 4° C. Then cells were washed twice and incubated for 30 minutes with F(ab)2 fragments of goat anti-mouse IgG that had been conjugated with […] (Tago Inc Burlingame, Calif., USA: 4350) in a dilution of 1:40 and a total volume of 25 μl.
After the last incubation, cells were washed twice and fluorescence was measured at 488 nanometer on a FACScan flow-cytometer (Becton Dickinson, Franklin Lakes, N.J., USA).
The 174CEM.T2 cell line expresses “empty” and unstable HLA-A2.1 molecules that can be stabilized when a peptide is binding to the peptide presenting groove of these molecules. […] This leads to an increase in cell surface expression of the HLA-A2.1 molecule.
With background fluorescence level (without adding peptides) set on a Fluorescence Index level of 0, binding of a peptide was regarded positive when the level of fluorescence was ≧0.5.

T1 sequence (P04439 25-365): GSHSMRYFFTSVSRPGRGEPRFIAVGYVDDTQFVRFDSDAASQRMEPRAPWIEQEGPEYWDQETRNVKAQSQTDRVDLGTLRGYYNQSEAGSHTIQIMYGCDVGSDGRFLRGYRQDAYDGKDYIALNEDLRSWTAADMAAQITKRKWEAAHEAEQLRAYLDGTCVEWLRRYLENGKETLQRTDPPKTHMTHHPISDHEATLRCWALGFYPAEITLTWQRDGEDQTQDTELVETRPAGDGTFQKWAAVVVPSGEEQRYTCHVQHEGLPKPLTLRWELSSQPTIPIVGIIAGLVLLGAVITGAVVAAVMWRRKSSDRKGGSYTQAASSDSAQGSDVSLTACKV
T1 sequence (P61769 21-119, further chain): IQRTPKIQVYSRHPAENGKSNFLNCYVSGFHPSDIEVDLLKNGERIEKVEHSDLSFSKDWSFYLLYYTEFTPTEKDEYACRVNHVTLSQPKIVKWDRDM

Turning to “YNIVTFCCK [residues 52-60 of HPV16 protein E7]”, the “binding ratio to standard” value in assay [1] stood at 0.0060; in assay [2], 0.0067.

In the case of “SCCRSSRTR [residues 145-153 of HPV16 protein E6]”, the figures for the “binding ratio to standard” value in assay [1] and in assay [2] were 0.0330 and 0.0200, respectively.

MSCCRSSRT: the “binding ratio to standard” value in assay [3] was 0.019.

As for “HVDIRTLED [residues 73-81 of HPV16 protein E7]”, the “binding ratio to standard” value in assay [3] came to 0.014.

For the sequence “LLRREVYDF [residues 44-52 of HPV16 protein E6]”, the “binding ratio to standard” value in assay [4] is 0.0023.

Take “CVYCKQQLL [HPV16 peptide 8, residues 37-45 of HPV16 protein E6]”: the “binding ratio to standard” value in assay [1] stood at 0.0450. In addition, in assay [5], the “MF (mean HLA-A2.1 fluorescence)” value is 195.0 and the “FI (Fluorescence Index)” value came to 2.0. For the same sequence, the “binding ratio to standard” value in assay [2] is 0.0320.

Turning to “AVCDKCLKF [residues 68-76 of HPV16 protein E6]”, the “binding ratio to standard” value is 0.0037 in assay [1] and 0.0056 in assay [2].

On to “QQLLRREVY [residues 42-50 of HPV16 protein E6]”, for which the “binding ratio to standard” value in assay [1] stood at 0.0084; in assay [2], 0.0058.

Turning to “WTGRCMSCC [residues 139-147 of HPV16 protein E6]”, in assay [3], the “binding ratio to standard” value came to 0.020.

With “PYAVCDKCL [residues 66-74 of HPV16 protein E6]”, the “binding ratio to standard” value in assay [4] was determined as 0.0055.

Consider “KCLKFYSKI [residues 72-80 of HPV16 protein E6]”, for which the “binding ratio to standard” value in assay [4] is given as 0.1100.

On to “RFHNIRGRW [residues 131-139 of HPV16 protein E6]”, for which, in assay [4], the “binding ratio to standard” value is reported as 0.1000.

Consider “LIRCINCQK [residues 107-115 of HPV16 protein E6]”, for which the “binding ratio to standard” value was determined as 0.0120 in assay [1] and 3.7000 in assay [2].

Regarding “HYNIVTFCC [residues 51-59 of HPV16 protein E7]”, the “binding ratio to standard” value in assay [1] turned out to be 0.0010; in assay [2] it was 0.0260.

As to “MHQKRTAMF [residues 1-9 of HPV16 protein E6]”, the “binding ratio to standard” value in assay [4] amounted to 0.0049.

Regarding “VYDFAFRDL [residues 49-57 of HPV16 protein E6]”, in assay [4], the “binding ratio to standard” value worked out at 0.0610.

With “CYSLYGTTL [residues 87-95 of HPV16 protein E6]”, the “binding ratio to standard” value in assay [4] is recorded as 0.1200.

With “VYCKQQLLR [residues 38-46 of HPV16 protein E6]”, the entries for the “binding ratio to standard” value in assay [4], in assay [1] and in assay [2] were 0.0011, 0.0022 and 0.0012, respectively.

In the case of “TTDLYCYEQ [residues 19-27 of HPV16 protein E7]”, the “binding ratio to standard” value in assay [3] was 0.023.

As for “VCDKCLKFY [residues 69-77 of HPV16 protein E6]”, the figures for the “binding ratio to standard” value in assay [1] and in assay [2] were 0.0030 and 0.0025, respectively.

In the case of “CMSCCRSSR [residues 143-151 of HPV16 protein E6]”, the figures for the “binding ratio to standard” value in assay [1] and in assay [2] were 0.0084 and 0.1800, respectively.

For the sequence “RAHYNIVTF [residues 49-57 of HPV16 protein E7]”, in assay [4], the “binding ratio to standard” value stood at 0.0670.

For the sequence “HYCYSLYGT [residues 85-93 of HPV16 protein E6]”, the “binding ratio to standard” value in assay [4] came to 0.0037.

As to “YRDGNPYAV [residues 61-69 of HPV16 protein E6]”, in assay [3], the “binding ratio to standard” value is recorded as 0.008.

For “YAVCDKCLK [residues 67-75 of HPV16 protein E6]”, the results for the “binding ratio to standard” value in assay [1] and in assay [2] were 0.0074 and 0.0012, respectively.

On to “IVYRDGNPY [residues 59-67 of HPV16 protein E6]”, for which the figures for the “binding ratio to standard” value in assay [1] and in assay [2] were 0.4700 and 3.0000, respectively.

In the case of “EIDGPAGQA [residues 37-45 of HPV16 protein E7]”, in assay [3], the “binding ratio to standard” value is listed as 0.025.

Regarding “EYRHYCYSL [residues 82-90 of HPV16 protein E6]”, the “binding ratio to standard” value in assay [4] is listed as 0.0460.

Consider “CCKCDSTLR [residues 58-66 of HPV16 protein E7]”, for which the “binding ratio to standard” value worked out at 0.0110 in assay [1] and 0.0016 in assay [2].

With “KISEYRHYC [HPV16 peptide 9, residues 79-87 of HPV16 protein E6]”, the “binding ratio to standard” value in assay [1] is recorded as 0.0076. For the same sequence, in assay [5], the “MF (mean HLA-A2.1 fluorescence)” value is 211.7 and the “FI (Fluorescence Index)” value turned out to be 2.2. For the same sequence, the “binding ratio to standard” value in assay [2] stood at 0.0044.

In the case of “ISEYRHYCY [residues 80-88 of HPV16 protein E6]”, the “binding ratio to standard” value amounted to 0.4300 in assay [1] and 0.0064 in assay [2].
